In article PMC6100082, “Pyridine-Ureas as Potential Anticancer Agents: Synthesis and In Vitro Biological Evaluation” (Molecules : A Journal of Synthetic Chemistry and Natural …, 2018):
Where two headings read alike, the source gives them in different places.

What was measured:
[1] = test system: breast cancer MCF-7 cell line; assay: In vitro anti-proliferative activity, MTT assay; assay type: cell-based, human; settings: MCF-7, MTT
Experimental: The in vitro anti-proliferative activity of the newly prepared pyridine-ureas 8a–n was examined against breast cancer MCF-7 cell line. The assay was carried out, as triplicates, utilizing the 3-(4,5-dimethylthiazol-2-yl)-2,5-diphenyltetrazolium bromide (MTT) colorimetric assay as described by T. Mosmann. Doxorubicin and Sorafenib were included in this assay as a reference drug.
MCF-7 (human breast cancer cell line) and WI-38 (human lung fibroblast cell line), were obtained from American Type Culture Collection (Manassas, VA, USA). The cells were propagated in DMEM and supplemented with 10% heat-inactivated FBS (Hyclone), 10 μg/mL of insulin (Manufacturer, Sigma, St. Louis, MO, USA), and 1% penicillin-streptomycin. MTT assay was utilized to examine the in vitro anti-proliferative activity of the newly prepared ureas following the reported procedures. […] The data presented are the mean of at least three separate experiments.

[2] = Homo sapiens, MCF7, 48 h, 48 h of incubation, read-out: IC50 48 h
[3] = Homo sapiens, MCF7, 72 h, 72 h of incubation, read-out: IC50 72 h
[4] = 48 h of incubation, read-out: IC50 48 h

Structure (SMILES)	melting point	IC50 [1, 2]	IC50 [1, 3]	IC50 [1, 4]
COc1ccc(NC(=O)Nc2ccc(-c3ccc(OC)cc3)nc2C)cc1 [Compound 8g, 1-(4-Methoxyphenyl)-3-(6-(4-methoxyphenyl)-2-methylpyridin-3-yl) Urea]	241 to 242 °C	4.12 ± 0.27 µM	27.2 ± 1.98 µM	
COc1ccc(-c2ccc(NC(=O)Nc3ccccc3)c(C)n2)cc1OC [Compound 8h, 1-(6-(3,4-Dimethoxyphenyl)-2-methylpyridin-3-yl)-3-phenylurea]	238 to 239 °C	> 50 µM	> 50 µM	> 50 µM
COc1ccc(-c2ccc(NC(=O)Nc3ccc(Cl)cc3)c(C)n2)cc1OC [Compound 8k, 1-(4-Chlorophenyl)-3-(6-(3,4-dimethoxyphenyl)-2-methylpyridin-3-yl) Urea]	266 to 267 °C	5.63 ± 0.36 µM	3.45 ± 0.3 µM	
COc1cccc2c1C(=O)c1c(O)c3c(c(O)c1C2=O)C[C@@](O)(C(=O)CO)C[C@@H]3O[C@H]1C[C@H](N)[C@H](O)[C@H](C)O1 [Dox., Doxorubicin, reference compound]		1.93 ± 0.15 µM	1.07 ± 0.07 µM	
CNC(=O)c1cc(Oc2ccc(NC(=O)Nc3ccc(Cl)c(C(F)(F)F)c3)cc2)ccn1 [Sorafenib, reference compound]		4.5 ± 0.3 µM	1.71 ± 0.15 µM	

Continued, values first:

melting point	IC50 [1, 2]	IC50 [1, 3]	IC50 [1, 4]	Structure (SMILES)
205 to 207 °C	3.03 ± 0.22 µM	2.83 ± 0.25 µM		COc1ccc(-c2ccc(NC(=O)Nc3ccccc3)c(C)n2)cc1 [Compound 8a, 1-(6-(4-Methoxyphenyl)-2-methylpyridin-3-yl)-3-phenylurea]
212 to 214 °C	6.4 ± 0.41 µM	3.52 ± 0.11 µM		COc1ccc(-c2ccc(NC(=O)Nc3cccc(Cl)c3)c(C)n2)cc1 [Compound 8c, 1-(3-Chlorophenyl)-3-(6-(4-methoxyphenyl)-2-methylpyridin-3-yl) Urea]
227 to 230 °C	> 50 µM	> 50 µM	> 50 µM	COc1ccc(-c2ccc(NC(=O)Nc3cccc(OC)c3)c(C)n2)cc1 [Compound 8f, 1-(3-Methoxyphenyl)-3-(6-(4-methoxyphenyl)-2-methylpyridin-3-yl) Urea]
